“Also recorded” adds a separate entry of the source.
Tested on: IFN+CD8+ T cells
Experiment: GF mice inoculated with human faecal samples or mouse B5 caecal contents, with or without antibiotics
Assay type: in vivo
Conditions: antibiotics via drinking water or chloroform-treated caecal contents
From the text: Next, it was investigated whether the human gut microbiota contained microbes which were able to induce IFN+CD8+ T cells (FIG. 4). Stool samples were collected from six healthy human volunteers (A˜F) (FIG. 5). The samples were individually administered orally into germ free […] mice kept in sterile isolators (five or six mice per group). Four weeks after oral inoculation of stool samples, mice were sacrificed, and small intestine and colons were harvested and investigated for IFN+CD8+ T-cells by FACS.
The mice were then orally administrated drinking water with or without Ampicillin, Metronidazole, Streptomycin or Tylosin (five mice per group) (FIG. 10). Alternatively, cecal contents of mouse B #5 were treated with 3% chloroform and orally inoculated into another five germ-free mice (‘B #5+Chrolo’). […] B #5 microbiota.
Human faecal samples were collected at the RIKEN institute and Keio University according to the study protocol approved by the institutional review board. Informed consent was obtained from each subject. Faecal samples and mouse B5 caecal contents were suspended in equal volume (w/v) of PBS containing 20% glycerol/PBS, snap-frozen in liquid nitrogen, and stored at −80° C. until use. The frozen stocks were thawed, suspended in TS broth, filtered through a 100 µm cell strainer, and orally inoculated into GF mice (approximately 5-60 mg/250 μL, per mouse). After 24 hours of inoculation, some mice were treated with ampicillin (1 g/L), metronidazole (1 g/L), tylosin (0.5 g/L) or streptomycin (0.5 g/L) via the drinking water. For chloroform treatment of B5 caecal contents, the caecal content suspension was mixed with chloroform (final concentration 3%) and incubated in a shaking water bath for 60 min followed by evaporation of chloroform via bubbling with N2 gas for 30 min. To isolate IFN+[…] T cell-inducing bacterial strains, caecal contents from GF+B5-Amp2 and GF+B5-Amp3 mice were serially dilated with PBS and seeded onto nonselective and selective agar plates (GAM, CM0151, and BBE). After culture under anaerobic conditions (80% N2, 10% H2, 10% CO2) in an anaerobic chamber (Coy Laboratory Products) at 37° C. for 2 to 4 days, individual colonies were picked, and the 16S rRNA gene region was amplified with universal primers (27F: 5′-[…]-3′ (SEQ ID NO:12), 1492R: 5′-[…]-3′ (SEQ ID NO:13)) and sequenced. Individual isolates in the culture collection were grouped as “strains” if their 16S rRNA gene sequences had 100% identity. The resulting strain sequences were compared to those in the RDP database and to OTUs observed in caecal samples from GF+B5−Amp2 and GF+B5−Amp3 to determine closely related species or strains and their corresponding OTUs. To prepare a bacterial mixture, bacterial strains were individually grown in GAM, CM0149, or EG both to confluence and equal volumes of media were mixed. […] The mixture of isolates was orally administered to GF mice (approximately 1-2×10^8 CFU of each strain in 250 μL medium per mouse). All mice receiving a given mixture of bacterial strains were maintained in a single gnotobiotic isolator. For administration of heat-killed bacteria, 11 strains cultured individually for 3 days were mixed, washed with autoclaved water, heat-killed at 121° C. for 30 min, and given to GF mice via the drinking water (2-10×10^7 equivalent CFU of each strain per 1 mL) for 4 weeks. C57BL/6 GF mice (6-12 weeks old) were used and analysed 3-4 weeks after bacterial colonization unless otherwise indicated.

SMILES	effect of treatment on IFN+CD8+ T cell induction by mouse B5 microbiota	effect of treatment on IFN+CD8+ T cell induction by mouse B5 microbiota (listed as Amp)	effect of treatment on IFN+CD8+ T cell induction by mouse B5 microbiota (listed as Chlo)
CC1(C)S[C@@H]2[C@H](NC(=O)[C@H](N)c3ccccc3)C(=O)N2[C@H]1C(=O)O [Ampicillin, ampicillin]	enhanced induction	enhanced the induction of IFN+CD8 T cells; also recorded: enhanced the observed induction	–
Cc1ncc([N+](=O)[O-])n1CCO [MNZ, metronidazole]	substantial decrease in IFN+CD8 T cell induction	–	–
[H]/N=C(/N)N[C@H]1[C@H](O)[C@@H](O)[C@H](O[C@@H]2O[C@@H](C)[C@](O)(C=O)[C@H]2O[C@@H]2O[C@@H](CO)[C@H](O)[C@@H](O)[C@@H]2NC)[C@@H](N/C(N)=N\[H])[C@@H]1O [STM, streptomycin]	substantial decrease in IFN+CD8 T cell induction	–	–
CC[C@H]1OC(=O)C[C@@H](O)[C@H](C)[C@@H](O[C@@H]2O[C@H](C)[C@@H](O[C@H]3C[C@@](C)(O)[C@@H](O)[C@H](C)O3)[C@H](N(C)C)[C@H]2O)[C@@H](CC=O)C[C@@H](C)C(=O)/C=C/C(C)=C/[C@@H]1CO[C@@H]1O[C@H](C)[C@@H](O)[C@@H](OC)[C@H]1OC [Tyl, tylosin]	substantial decrease in IFN+CD8 T cell induction	–	–
ClC(Cl)Cl [chloroform]	reduced the induction capability; also recorded: abrogated induction altogether	–	abrogated it altogether

Source: patent US11723934B2, “Compositions and methods for the induction of CD8+ T-cells” (Keio University, priority 2018, dated 2023)
